Experimental data reported in ChEMBL document CHEMBL1144301, “Non-peptidic small molecule inhibitors of XIAP” (Bioorg Med Chem Lett, 2005).

Molecular target: E3 ubiquitin-protein ligase XIAP (Homo sapiens, UniProt P98170)
Test: Dissociation constant against BIR3 domain of X-linked IAP in fluorescence polarization anisotropy competition assay

Sequence of E3 ubiquitin-protein ligase XIAP (P98170 whole entry, the tested form may be a part): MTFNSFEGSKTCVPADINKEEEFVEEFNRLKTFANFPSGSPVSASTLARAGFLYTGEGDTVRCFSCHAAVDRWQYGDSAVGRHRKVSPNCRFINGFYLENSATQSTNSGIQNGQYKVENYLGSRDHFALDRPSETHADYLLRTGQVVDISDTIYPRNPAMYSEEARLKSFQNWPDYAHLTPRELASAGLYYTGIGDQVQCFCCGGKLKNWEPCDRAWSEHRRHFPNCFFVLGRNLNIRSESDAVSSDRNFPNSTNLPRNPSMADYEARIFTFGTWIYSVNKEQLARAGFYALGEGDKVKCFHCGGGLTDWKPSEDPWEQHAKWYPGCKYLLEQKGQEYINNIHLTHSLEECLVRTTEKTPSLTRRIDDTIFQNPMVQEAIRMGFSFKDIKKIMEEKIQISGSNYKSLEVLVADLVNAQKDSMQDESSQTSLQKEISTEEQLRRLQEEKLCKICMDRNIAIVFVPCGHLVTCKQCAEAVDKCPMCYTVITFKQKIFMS

Kd: > 100 µM
SMILES: C[C@H](N)C(=O)Nc1nc(-c2cccc(Cc3ccccc3)c2)c(Cc2ccccc2)s1
